Assay results published in patent US20140142185A1, “3-Benzyloxyphenyloxoacetic Acid Compounds for Reducing Uric Acid” (priority 2011, published 2014).

Molecular target: T1, Human URAT1 (Homo sapiens, UniProt Q96S37)
T1 construct: The full-length hURAT1 cDNA was obtained from the vector pCMV6-XL5 and subcloned into the expression vector pCMV6-Neo
T1 sequence (Q96S37 1-553): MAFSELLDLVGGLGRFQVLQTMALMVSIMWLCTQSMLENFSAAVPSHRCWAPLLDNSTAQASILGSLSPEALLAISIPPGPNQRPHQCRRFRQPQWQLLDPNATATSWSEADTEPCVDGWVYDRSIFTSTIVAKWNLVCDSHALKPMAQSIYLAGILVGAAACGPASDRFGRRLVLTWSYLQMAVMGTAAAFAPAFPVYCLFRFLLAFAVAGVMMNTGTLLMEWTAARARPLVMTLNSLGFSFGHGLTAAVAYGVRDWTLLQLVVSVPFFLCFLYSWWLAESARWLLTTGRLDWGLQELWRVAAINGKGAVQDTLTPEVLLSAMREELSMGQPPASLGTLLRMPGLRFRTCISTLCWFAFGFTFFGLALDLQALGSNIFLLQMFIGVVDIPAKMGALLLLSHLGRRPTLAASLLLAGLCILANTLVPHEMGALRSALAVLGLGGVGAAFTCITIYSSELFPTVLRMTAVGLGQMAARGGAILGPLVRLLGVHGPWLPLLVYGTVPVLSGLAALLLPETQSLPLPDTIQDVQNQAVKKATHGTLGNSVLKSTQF
Assay: URAT1 inhibition assay: [8-14C] urate uptake in hURAT1-expressing HEK293 cells
Assay type: cell-based
Conditions: for inhibition at 10 µM: Human URAT1-Expressing HEK293 cells, 50 μM [8-14C] urate, 5 min, read-out: % Inhibition of uric acid uptake
Description: An in vitro URAT1 assay is useful for identifying compounds with potential activity in lowering serum uric acid. A suitable assay involves transfection of cells (e.g. human embryonic kidney cells; “HEK”) with a vector encoding human URAT1, followed by determination of the ability of transfected cells to take up radiolabeled uric acid. The activity of compounds as URAT1 inhibitors is evaluated by their ability to block uric acid uptake by transfected cells.
Plasmid vector pCMV6-XL5 containing hURAT1 cDNA (Cat. No. SC125624) and the expression vector pCMV6-Neo (Cat. No. pCMVNEO) were obtained from OriGene Technologies, Inc. The full-length hURAT1 cDNA was obtained from the vector pCMV6-XL5 and subcloned into the expression vector pCMV6-Neo to create the hURAT1 expression plasmid pCMV6-hURAT1. The sequences were verified by automatic DNA sequencing.
Human embryonic kidney 293 (HEK) cells (ATTCC, Cat No. CRL-1573) were cultured in EMEM supplemented with 10% FBS and 2 mM L-glutamine and incubated at 37° C. and 5% CO2. For transfection experiments, cells were plated on 60 mm dishes in 1 ml media per dish. After an 18-24 hour incubation, cells were transfected with plasmid pCMV6-hURAT1 or the expression vector pCMV6-Neo, using the Lipofectin trasfection agent following the manufacturer's instructions (Invitrogen, Cat. No. 18292). After transfection cells were grown in EMEM media for 72 hours and then by adding 1 mg/ml Geneticin (GIBCO, Cat. No 10131) stable transfectants were selected. […]
hURAT1-HEK cells and mock-HEK cells were plated in poly-D-Lysine Cell culture 24 well plates (Becton Dickinson, Cat. No. 354414) at a concentration of 3×10^5 in EMEM medium and incubated overnight. […] The cell lysates were transferred into the scintillation vials containing 1 ml of scintillation fluid (Opti Phase SuperMIX, PerkinElmer, Cat No. 1200-439) and the radioactivity was counted in the Microbeta counter (1450, Wallac Jet, PerkinElmer). […] The radioactivity values obtained for the wells that contained DMSO were taken as 100% uptake of the cells. […]

Row | SMILES | inhibition at 10 µM [%] | IC50 (uric acid uptake in hURAT1-HEK cells) [µM]
1 | Cc1ccc(C(=O)C(=O)O)cc1OCc1c(C)cccc1C [Cpd. FF, 2-(3-(2,6-dimethylbenzyloxy)-4-methylphenyl)-2-oxoacetic acid] | 87.4 | 1.28
2 | COc1ccc(C(=O)C(=O)O)cc1OCc1c(C)cccc1C [Cpd. FG, 2-(3-(2,6-dimethylbenzyloxy)-4-methoxyphenyl)-2-oxoacetic acid] | 67.1 | 
